Patent publication EP4653432A1, “AUTOPHAGY INDUCING COMPOUNDS AND USES THEREOF IN THE PREVENTION OR THERAPY OF DISEASES” (Samsara Therapeutics Inc., priority 2024, dated 2025)
Structures can show the parent of a compound that is named as a salt.

System: U2OS cell line stably expressing RFP-eGFP-hLC3b (a tandem reporter cell line)
Assay: Tandem reporter assay (assay to assess autophagic flux)
Type: cell-based, Human
Conditions: result in words; at different concentrations
Protocol: Selected compounds of this invention were also assessed for their ability to stimulate autophagy using a U2OS cell line stabling expressing RFP-eGFP-hLC3b (a tandem reporter cell line). During the process of autophagy, the cargo to be degraded is first enveloped by organelles called autophagosomes. These autophagosomes then fuse with lysosomes, causing them to become acidified and their digestive enzymes to become activated. The term "autophagic flux" is used to represent the dynamic process of autophagy: autophagic flux refers to the whole process of autophagy, including autophagosome formation, maturation, fusion with lysosomes, subsequent breakdown, and the release of macromolecules back into the cytosol (Zhang XJ, Chen S, Huang KX, Le WD. Why should autophagic flux be assessed? Acta Pharmacol Sin. 2013 May; 34(5): 595-9. doi: 10.1038/aps.2012.184. Epub 2013 Mar 11). Compounds that stimulate autophagic flux stimulate the dynamic process of autophagy (the whole process of autophagy). […] Using a fluorescent microscope, the number of autophagosomes and autolysosomes can be counted, allowing for the monitoring of both the induction of autophagy (total puncta count) and the rate of autophagic flux (ratio of red-only to red-and-green puncta). The influence of small molecules on autophagy induction and flux can be assessed using this system by comparison to a non-treated control. […]

Compound | number of RFP-only puncta (autolysosomes) relative to a DMSO-treated control (non-treated control)
CC(C)N(C(=O)c1csc(-c2cnc3ccccn23)n1)[C@@H]1CCNC1 [SLN5-X-0978, (R)-2-(imidazo[1,2-a]pyridin-3-yl)-N-Isopropyl-N-(pyrrolidin-3-yl) thiazole-4-carboxamide hydrochloride] | Particularly good results
CC(C)c1ccc(-n2cc(C#N)c(-c3nc(C(=O)N(C(C)C)C4CCNCC4)cs3)n2)nc1.Cl [Compound E, N-isopropyl-N-4-piperidyl-2-[4-cyano-1-(5-isopropyl-2-pyridyl)-3-pyrazolyl]-1,3-thiazole-4-carboxamide hydrochloride] | Particularly good results
